Data: PMC8950706, “Influence of Substitutions in the Binding Motif of Proline-Rich Antimicrobial Peptide ARV-1502 on 70S Ribosome Binding and Antimicrobial Activity” (International Journal of Molecular Sciences, 2022)
Structures can show the parent of a compound that is named as a salt.

Assays:
E. coli 70S ribosome = assay: Competitive fluorescence polarization assay against Cf-ARV-1502 (Ki); type: binding, E. coli BW25113; details: 20 nmol/L Cf-ARV-1502, 0.5 µmol/L ribosome, 28 °C, 90 min + 90 min, Ki calculated from IC50; for Ki: read-out: Ki (nmol/L), competition with Cf-ARV-1502
Protocol: E. coli 70S ribosomes were prepared using a previously described protocol that was slightly modified. Briefly, E. coli BW25113 was cultivated in Luria-Bertani (LB) medium and cells were harvested after reaching an optical density of ~4 at 600 nm by centrifugation (5000× g, 15 min, 4 °C, Rotor JLA 8.100, Avanti J-20 XP, Beckmann Coulter, Krefeld, Germany). The cell pellets were frozen and stored at −80 °C. Cells were resuspended in ribosome buffer (2 mL/g cells; 20 mmol/L HEPES-KOH, 6 mmol/L MgCl2, 30 mmol/L NH4Cl, 4 mmol/L 2-mercaptoethanol, pH 7.6). Lysozyme (0.25 g/L cell suspension) was added, and the mixture was incubated on ice for 30 min. Cells were disrupted using the bead mill homogenizer FastPrep-24™ 5G (40 s, 4 m/s, 6 cycles, MP Biomedicals Germany GmbH, Eschwege, Germany) and zirconia/silica beads (0.1 mm diameter). The lysate was centrifuged (1500× g, 5 min, 4 °C, Rotor S4180, Allegra 21R, Beckmann Coulter) and the supernatant was incubated with DNase (5 U/mL) on ice for 60 min.
Dissociation and inhibitory constants were determined in black 384-well-plates (Greiner Bio-One GmbH, Frickenhausen, Germany) blocked with 0.5% (w/v) casein in phosphate buffered saline (PBS, 8.8 mmol/L Na2HPO4×12 H2O, 1.2 mmol/L KH2PO4, 0.3 mol/L NaCl, pH 7.4) containing 0.05% (w/v) Tween® 20 (PBST) overnight at 4 °C and washed three times with PBST.
Ribosome solution was added (10 µmol/L) and the plate was incubated after centrifugation (2 min, 500× g, Rotor S2096, Allegra^TM 21R, Beckmann Coulter) at 28 °C for 90 min. Cf-labeled peptide was added (10 µL; final concentration of 20 nmol/L; final ribosome concentration of 0.5 µmol/L) and the plate was centrifuged and incubated again (90 min, 28 °C, dark). […] Kd and IC50 values were calculated by fitting the data with a variable slope parameter [y = min + (max − min)/(1 + (x/Kd) ^−Hill slope) ] using SigmaPlot 13 (Systat Software Inc., San Jose, CA, USA). The obtained IC50 values were used to calculate the Ki values.

E. coli BW25113 = assay: Checkerboard assay (FICI); type: cell-based, Escherichia coli; details: E. coli BW25113, 25% MHB2; synergy FICI ≤ 0.5, antagonism FICI ≥ 4; Table S6
Protocol: Synergy was tested in sterile 96-well plates (polystyrene F-bottom, Greiner Bio-One GmbH) using a total volume of 100 μL per well. […] Plates were incubated (37 °C, 20 h) and the optical density recorded at 595 nm using a microplate reader (Victor3, Perkin Elmer Inc., Waltham, MA, USA). The fractional inhibitory concentration index (FICI) was calculated by the equation FICI = […] = (A/MICA) + (B/MICB), where MICA/B are the MICs of an antimicrobial peptide (A) and one of the three tested antibiotics (B) alone and A and B are the MICs of combined antimicrobials. Synergy was defined as FICI ≤ 0.5, antagonism as FICI ≥ 4 and additive or indifference as FICI between 0.5 and 4.

Question: How did the Ki (E. coli 70S ribosome) turn out when CC[C@H]1OC(=O)[C@H](C)[C@@H](O[C@H]2C[C@@](C)(OC)[C@@H](O)[C@H](C)O2)[C@H](C)[C@@H](O[C@@H]2O[C@H](C)C[C@H](N(C)C)[C@H]2O)[C@](C)(O)C[C@@H](C)C(=O)[C@H](C)[C@@H](O)[C@]1(C)O [Erythromycin] was run?
Answer: 23 ± 1.6 nmol/L

Question: How did the Ki (E. coli 70S ribosome) turn out when O=C(N[C@H](CO)[C@H](O)c1ccc([N+](=O)[O-])cc1)C(Cl)Cl [Chloramphenicol] was run?
Answer: 1700 ± 481 nmol/L

Question: Which results are given for NC[C@H]1O[C@H](O[C@H]2[C@H](O)[C@@H](O[C@H]3O[C@H](CO)[C@@H](O)[C@H](N)[C@H]3O)[C@H](N)C[C@@H]2N)[C@H](O)[C@@H](O)[C@@H]1O [Kanamycin, kanamycin sulfate]?
Answer: Ki (nmol/L), competition with Cf-ARV-1502 (E. coli 70S ribosome): no fit; Ki (nmol/L), competition with Cf-ARV-1502 (E. coli 70S ribosome; listed as kanamycin): did not affect the binding of Cf-ARV-1502; Checkerboard assay (FICI), antibiotic combined with peptide (E. coli BW25113): neither synergistic nor antagonistic effects

Question: Which results are given for [H]/N=C(/N)N[C@H]1[C@H](O)[C@@H](O)[C@H](O[C@@H]2O[C@@H](C)[C@](O)(C=O)[C@H]2O[C@@H]2O[C@@H](CO)[C@H](O)[C@@H](O)[C@@H]2NC)[C@@H](N/C(N)=N\[H])[C@@H]1O [Streptomycin]?
Answer: Ki (nmol/L), competition with Cf-ARV-1502 (E. coli 70S ribosome): no fit; Ki (nmol/L), competition with Cf-ARV-1502 (E. coli 70S ribosome; listed as streptomycin): did not affect the binding of Cf-ARV-1502
